Assay results as given in ChEMBL document CHEMBL2424597, “Diarylheptanoids with inhibitory effects on melanogenesis from the rhizomes of Curcuma comosa in B16 melanoma cells” (Bioorg Med Chem Lett, 2013).
Each block holds one compound with its values, some of them ahead of it.

How the values were obtained:
[1] = target: T1, Tyrosinase (Agaricus bisporus) (UniProt O42713); experiment: Inhibition of mushroom tyrosinase at 10 uM
T1 sequence (whole entry): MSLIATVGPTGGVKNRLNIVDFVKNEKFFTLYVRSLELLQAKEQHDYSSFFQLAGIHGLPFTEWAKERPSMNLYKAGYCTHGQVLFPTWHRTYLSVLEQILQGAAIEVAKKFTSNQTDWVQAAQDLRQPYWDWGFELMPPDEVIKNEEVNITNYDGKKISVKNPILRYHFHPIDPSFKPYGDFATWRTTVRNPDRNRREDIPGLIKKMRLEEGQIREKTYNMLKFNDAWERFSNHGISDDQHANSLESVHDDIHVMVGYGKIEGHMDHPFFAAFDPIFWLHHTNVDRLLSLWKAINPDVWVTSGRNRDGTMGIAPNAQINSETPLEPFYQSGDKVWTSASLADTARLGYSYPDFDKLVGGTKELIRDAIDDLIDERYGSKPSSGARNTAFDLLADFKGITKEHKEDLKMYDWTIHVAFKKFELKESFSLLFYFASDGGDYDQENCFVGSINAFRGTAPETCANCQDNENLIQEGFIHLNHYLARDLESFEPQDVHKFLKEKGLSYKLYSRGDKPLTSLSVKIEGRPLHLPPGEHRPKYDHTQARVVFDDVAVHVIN

[2] = Cytotoxicity against mouse B16-4A5 cells assessed as cell viability at 10 uM after 70 hrs by WST-8 assay in presence of theophylline; assay type: cell-based; conditions: read-out: Activity
[3] = Cytotoxicity against mouse B16-4A5 cells assessed as cell viability at 3 uM after 70 hrs by WST-8 assay in presence of theophylline; assay type: cell-based; conditions: read-out: Activity
[4] = Antimelanogenic activity in mouse B16-4A5 cells assessed as inhibition of theophylline-induced melanin production after 72 hrs by spectrophotometry relative to control; assay type: functional, cell-based; conditions: B16-4A5, 72 h
[5] = Antimelanogenic activity in mouse B16-4A5 cells assessed as inhibition of theophylline-induced melanin production at 10 uM after 72 hrs by spectrophotometry relative to control; assay type: functional; conditions: B16-4A5, 72 h
[6] = Antimelanogenic activity in mouse B16-4A5 cells assessed as inhibition of theophylline-induced melanin production at 3 uM after 72 hrs by spectrophotometry relative to control; assay type: functional; conditions: B16-4A5, 72 h
[7] = Antimelanogenic activity in mouse B16-4A5 cells assessed as inhibition of theophylline-induced melanin production at 1 uM after 72 hrs by spectrophotometry relative to control; assay type: functional; conditions: B16-4A5, 72 h
[8] = Antimelanogenic activity in mouse B16-4A5 cells assessed as inhibition of theophylline-induced melanin production at 0.3 uM after 72 hrs by spectrophotometry relative to control; assay type: functional; conditions: B16-4A5, 72 h
[9] = Antimelanogenic activity in mouse B16-4A5 cells assessed as inhibition of theophylline-induced melanin production at 0.1 uM after 72 hrs by spectrophotometry relative to control; assay type: functional; conditions: B16-4A5, 72 h

SMILES: CC(=O)O[C@H](CCc1ccc(O)c(O)c1)C[C@H](O)CCc1ccc(O)cc1
inhibition [1]: < 17%
viability at 70 h, 10 µM [2]: 92.3%
viability at 70 h, 3 µM [3]: 95.2%
IC50 [4]: 4.91 µM
inhibition at 10 µM [5]: 59.9%
inhibition at 3 µM [6]: 21.8%
inhibition at 1 µM [7]: 27.3%
inhibition at 0.3 µM [8]: 15.1%
inhibition at 0.1 µM [9]: 15.4%

SMILES: Oc1ccc(CC[C@@H](O)C[C@H](O)CCc2ccc(O)cc2)cc1 [(+)-HANNOKINOL]
inhibition [1]: < 17%
viability at 70 h, 10 µM [2]: 92.3%
viability at 70 h, 3 µM [3]: 95.2%
IC50 [4]: > 10 µM
inhibition at 10 µM [5]: 21.9%
inhibition at 3 µM [6]: 23.1%
inhibition at 1 µM [7]: 15.7%
inhibition at 0.3 µM [8]: 20.3%
inhibition at 0.1 µM [9]: 22%

SMILES: Oc1ccc(CC[C@H](O)C[C@H](O)CCc2ccc(O)c(O)c2)cc1
inhibition [1]: < 17%
viability at 70 h, 10 µM [2]: 71.6%
viability at 70 h, 3 µM [3]: > 91.9%
inhibition at 3 µM [6]: -23.7%
inhibition at 1 µM [7]: -10.9%
inhibition at 0.3 µM [8]: -3.7%
inhibition at 0.1 µM [9]: -0.7%

SMILES: COc1cc(CC[C@H](O)C[C@H](O)CCc2cc(OC)c(O)c(OC)c2)ccc1O
inhibition [1]: < 17%
viability at 70 h, 10 µM [2]: 92.3%
viability at 70 h, 3 µM [3]: 95.2%
IC50 [4]: 3 µM
inhibition at 10 µM [5]: 34.4%
inhibition at 3 µM [6]: 50.3%
inhibition at 1 µM [7]: 38.4%
inhibition at 0.3 µM [8]: 43.2%
inhibition at 0.1 µM [9]: 35.4%

SMILES: CC(=O)O[C@H](CCc1ccc(O)c(O)c1)C[C@H](O)CCc1ccc(O)c(O)c1
inhibition [1]: < 17%
viability at 70 h, 10 µM [2]: 92.3%
viability at 70 h, 3 µM [3]: 95.2%
inhibition at 10 µM [5]: 5.5%
inhibition at 3 µM [6]: 4.5%
inhibition at 1 µM [7]: -5.7%
inhibition at 0.3 µM [8]: -9.9%
inhibition at 0.1 µM [9]: -1.6%

SMILES: Oc1ccc(/C=C/CC[C@@H](O)CCc2ccc(O)cc2)cc1
inhibition [1]: 25.5%
viability at 70 h, 10 µM [2]: 93%
viability at 70 h, 3 µM [3]: 95.2%
IC50 [4]: 0.36 µM
inhibition at 10 µM [5]: 90.5%
inhibition at 3 µM [6]: 79.3%
inhibition at 1 µM [7]: 67.3%
inhibition at 0.3 µM [8]: 47.5%
inhibition at 0.1 µM [9]: 27.7%

SMILES: O=C(CCc1ccc(O)cc1)C[C@@H](O)CCc1ccc(O)cc1
inhibition [1]: < 17%

SMILES: O=C(/C=C/C=C/c1ccc(O)c(O)c1)CCc1ccc(O)cc1
inhibition [1]: < 17%
viability at 70 h, 10 µM [2]: 92.3%
viability at 70 h, 3 µM [3]: 95.2%
inhibition at 10 µM [5]: 16.3%
inhibition at 3 µM [6]: 23.4%
inhibition at 1 µM [7]: 30.5%
inhibition at 0.3 µM [8]: 37.8%
inhibition at 0.1 µM [9]: 27.8%

SMILES: COc1cc(CC[C@@H](O)CC(=O)CCc2ccc(O)cc2)ccc1O
inhibition [1]: < 17%
viability at 70 h, 10 µM [2]: 92.3%
viability at 70 h, 3 µM [3]: 95.2%
inhibition at 10 µM [5]: -24.9%
inhibition at 3 µM [6]: 4.4%
inhibition at 1 µM [7]: 16.6%
inhibition at 0.3 µM [8]: -11.9%
inhibition at 0.1 µM [9]: 4%

Now from value to compound, other results behind:

inhibition [1]: < 17%
IC50 [4]: > 10 µM
SMILES: CC(=O)O[C@H](CCc1ccc(O)cc1)C[C@@H](CCc1ccc(O)c(O)c1)OC(C)=O
viability at 70 h, 10 µM [2]: 92.3%
viability at 70 h, 3 µM [3]: 95.2%
inhibition at 10 µM [5]: 27.3%
inhibition at 3 µM [6]: 7.3%
inhibition at 1 µM [7]: 8.1%
inhibition at 0.3 µM [8]: 6.3%
inhibition at 0.1 µM [9]: 3.6%

inhibition [1]: < 17%
IC50 [4]: > 10 µM
SMILES: COc1cc(CC[C@@H](O)CC/C=C/c2ccc(O)cc2)ccc1O
viability at 70 h, 10 µM [2]: 76%
viability at 70 h, 3 µM [3]: 84.6%
inhibition at 10 µM [5]: 37.8%
inhibition at 3 µM [6]: 27.2%
inhibition at 1 µM [7]: 28.9%
inhibition at 0.3 µM [8]: 8.9%
inhibition at 0.1 µM [9]: 13.7%

inhibition [1]: < 17%
SMILES: Oc1ccc(CC[C@@H](O)C[C@H](O)CCc2ccc(O)c(O)c2)cc1
viability at 70 h, 10 µM [2]: 92.3%
viability at 70 h, 3 µM [3]: 95.2%
inhibition at 10 µM [5]: -18.9%
inhibition at 3 µM [6]: 0.1%
inhibition at 1 µM [7]: -22.7%
inhibition at 0.3 µM [8]: 8.9%
inhibition at 0.1 µM [9]: 7%

inhibition [1]: 34.3%
IC50 [4]: 1.99 µM
SMILES: O=C(/C=C/C=C/c1ccc(O)cc1)CCc1ccc(O)cc1
viability at 70 h, 10 µM [2]: 92.3%
viability at 70 h, 3 µM [3]: 95.2%
inhibition at 10 µM [5]: 68.4%
inhibition at 3 µM [6]: 41.9%
inhibition at 1 µM [7]: 53.4%
inhibition at 0.3 µM [8]: 31.7%
inhibition at 0.1 µM [9]: 25.4%

inhibition [1]: < 17%
SMILES: COc1cc(CC[C@@H](O)C[C@@H](O)CCc2ccc(O)cc2)cc(OC)c1O
viability at 70 h, 10 µM [2]: 92.3%
viability at 70 h, 3 µM [3]: 95.2%
inhibition at 10 µM [5]: 7.2%
inhibition at 3 µM [6]: 25%
inhibition at 1 µM [7]: 23.1%
inhibition at 0.3 µM [8]: 23.2%
inhibition at 0.1 µM [9]: 11.5%

inhibition [1]: < 17%
IC50 [4]: 1.24 µM
SMILES: O=C(CC/C=C/c1ccc(O)cc1)CCc1ccc(O)cc1
viability at 70 h, 10 µM [2]: 71.6%
viability at 70 h, 3 µM [3]: > 91.9%
inhibition at 10 µM [5]: 57.1%
inhibition at 3 µM [6]: 61.4%
inhibition at 1 µM [7]: 44.9%
inhibition at 0.3 µM [8]: 29.9%
inhibition at 0.1 µM [9]: 21.2%
